Ten compounds from ChEMBL document CHEMBL1201862, “PubChem BioAssay data set” (2004) can be followed below.

Common to all, as to test: NCI tumour cell line growth inhibition, 48 h
Assay [1] has as its system A549.
Assay [2] has as its system ACHN.
In assay [3] the test system is COLO 205.
Assay [4] concerns EKVX.
For assay [5], the system named is HCT-15.
Assay [6] has as its system Hs-578T.
Assay [7] deals with IGROV-1.
For assay [8], the system named is K562.
Assay [9] relates to LOX IMVI.
Assay [10] concerns MCF7.
Assay [11] relates to MDA-MB-231.
Assay [12] deals with MDA-MB-435.
The subject of assay [13] is NCI-H226.
In assay [14] the test system is OVCAR-4.
Assay [15] relates to SF-295.
In assay [16] the test system is SF-539.
Assay [17] relates to SK-MEL-28.
Assay [18] relates to SK-MEL-2.
The test system of assay [19] is SK-MEL-5.
The subject of assay [20] is UACC-257.

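Dose response: 5 concentrations. Exposure: 48 h. Format: 96-well plates. Endpoint: linear interpolation; highest concentration if not reached. GI50 = concentration required for 50% inhibition of growth.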 Calls of active or inactive are those of the source. No stated cut-off is given here; in the data, active = GI50 up to about 1.1 µM and inactive = higher.

In the case of `O=C1C(Cl)C(c2cc3cc(Br)ccc3nc2Cl)N1c1c(Cl)cccc1Cl` (stereo not given), the GI50 was > 25 µM (inactive) in [1]; 15.9 µM (inactive) in assay [2]; > 25 µM (inactive) in assay [3]; 6.32 µM (inactive) in assay [4]; 13.4 µM in assay [5]; > 25 µM (inactive) in assay [6]. For the same compound, the GI50 in assay [7] is 6.9 µM (inactive); in assay [8], 7.01 µM (inactive); in [9], 3.66 µM (inactive); in assay [10], 6.76 µM (inactive); in assay [11], 19.3 µM (inactive); in [12], 8.67 µM (inactive). The GI50 in [13] was 15.8 µM (inactive); in assay [14], 5.46 µM (inactive); in assay [15], > 25 µM (inactive); in assay [16] it was 5.27 µM (inactive); in [17], > 25 µM (inactive); in [18], > 25 µM (inactive). Moreover, the figures for the GI50 in assay [19] and in [20] were 12.5 µM (inactive) and 16.5 µM (inactive), respectively.
Turning to `CCCCCCCCCCCC(=O)OC[C@H](C[As](=O)(O)O)OC(=O)CCCCCCCCCCC`, the GI50 in assay [1] is 6.92 µM (inactive); in assay [2], 2.79 µM (inactive); in assay [3] it was 19.4 µM (inactive); in [4], 10.2 µM (inactive); in [5] it was 8.26 µM; in [6], 2.78 µM (inactive). In addition, the GI50 was 1.9 µM (inactive) in [7]; 4.89 µM (inactive) in assay [8]; 8.79 µM (inactive) in assay [9]; 8.75 µM (inactive) in [10]; 3.81 µM (inactive) in assay [11]; 2.64 µM (inactive) in assay [12]. Besides, the GI50 in assay [13] was 14.8 µM (inactive); in assay [14], 17.7 µM (inactive); in assay [15], 13.4 µM (inactive); in [16], 14.2 µM (inactive); in assay [17], 3.94 µM (inactive); in assay [18], 2.68 µM (inactive). For the same compound, the GI50 in [19] was 1.99 µM (inactive); in assay [20], 11 µM (inactive).
Consider `COc1ccc([C@H]2CC(=O)C[C@H](c3ccc(OC)cc3OC)C23C(=O)c2ccccc2C3=O)c(OC)c1`, for which the GI50 in [1] was > 100 µM (inactive); in [2], > 100 µM (inactive); in [3], > 100 µM (inactive); in assay [4] it was > 100 µM (inactive); in assay [5], greater than 100 µM; in [6] it was > 100 µM (inactive). Besides, the GI50 in assay [7] is > 100 µM (inactive); in assay [8], > 100 µM (inactive); in assay [9], 65 µM (inactive); in assay [10], > 100 µM (inactive); in [11] it was > 100 µM (inactive); in assay [12], > 100 µM (inactive). For the same compound, the GI50 in assay [13], in assay [14], in [15], in assay [16], in [17] and in assay [18] was > 100 µM (inactive) in each case. The figures for the GI50 in assay [19] and in assay [20] were 68.1 µM (inactive) and > 100 µM (inactive), respectively.
With `CNC(=O)OCc1nc(SC)n(C)c1COC(=O)NC`, the GI50 in [1] is 242 µM (inactive); in assay [2] it was 64.1 µM (inactive); in [3] it was 146 µM (inactive); in assay [4], 230 µM (inactive); in [5], 171 µM; in assay [6] it was 195 µM (inactive). Moreover, the GI50 was 175 µM (inactive) in [7]; 147 µM (inactive) in assay [8]; 133 µM (inactive) in assay [9]; 132 µM (inactive) in assay [10]; 187 µM (inactive) in assay [11]; 161 µM (inactive) in [12]. In addition, the GI50 was 83.8 µM (inactive) in assay [13]; 129 µM (inactive) in [14]; 187 µM (inactive) in [15]; 133 µM (inactive) in assay [16]; 188 µM (inactive) in [17]; 119 µM (inactive) in assay [18]. For the same compound, the figures for the GI50 in [19] and in assay [20] were 153 µM (inactive) and 103 µM (inactive), respectively.
For `Nc1nc(Cl)c2ncn(Cc3ccc(CCl)cc3)c2n1`, the GI50 in assay [1] was 15.7 µM (inactive); in assay [2], 9.62 µM (inactive); in assay [3] it was 3.64 µM (inactive); in [4], 2.58 µM (inactive); in [5], 4.95 µM; in assay [6], 29.2 µM (inactive). For the same compound, the GI50 in assay [7] is 9.23 µM (inactive); in assay [8], 3.61 µM (inactive); in assay [9] it was 5.41 µM (inactive); in assay [10], 2.81 µM (inactive); in assay [11] it was 13.1 µM (inactive); in assay [12], 16.6 µM (inactive). The GI50 was 10.4 µM (inactive) in assay [13]; 15.6 µM (inactive) in assay [14]; 10.8 µM (inactive) in [15]; 3.13 µM (inactive) in assay [16]; 18 µM (inactive) in [17]; 11.5 µM (inactive) in assay [18]. The GI50 is 15.3 µM (inactive) in [19] and 12.5 µM (inactive) in assay [20].
Turning to `COc1ccc(/C=N/NC(=O)c2ccc(O)c(CN(C)C)c2)cc1`, the GI50 was > 100 µM (inactive) in assay [1]; > 100 µM (inactive) in [2]; > 100 µM (inactive) in assay [3]; > 100 µM (inactive) in assay [4]; greater than 100 µM in [5]; > 100 µM (inactive) in assay [6]. In addition, the GI50 in assay [7] was > 100 µM (inactive); in assay [8], > 100 µM (inactive); in assay [9], > 100 µM (inactive); in assay [10], > 100 µM (inactive); in [11], > 100 µM (inactive); in assay [12], 47.3 µM (inactive). For the same compound, the GI50 in assay [13], in assay [14], in [15], in [16], in [17] and in [18] was > 100 µM (inactive) throughout. In addition, the GI50 in assay [19] and in assay [20] was > 100 µM (inactive) in each case.
With `Cn1c(=O)sc2cc(C(=S)N3CCOCC3)ccc21`, the GI50 in assay [1] was > 100 µM (inactive); in assay [2] it was > 100 µM (inactive); in [3], > 80.7 µM (inactive); in assay [4], > 28.8 µM (inactive); in assay [5] it was greater than 92.3 µM; in [6] it was > 41 µM (inactive). Further, the GI50 was > 51.5 µM (inactive) in assay [7]; 41.2 µM (inactive) in assay [8]; > 85.7 µM (inactive) in [9]; > 100 µM (inactive) in assay [10]; > 100 µM (inactive) in assay [11]; > 100 µM (inactive) in assay [12]. Besides, the GI50 in assay [13] was > 46.9 µM (inactive); in [14] it was > 100 µM (inactive); in [15] it was > 100 µM (inactive); in [16] it was > 100 µM (inactive); in [17], > 100 µM (inactive); in assay [18] it was > 100 µM (inactive). In addition, the GI50 in [19] and in assay [20] was > 100 µM (inactive) throughout.
Regarding `CC(=O)OCCCC(NC(=O)OC(C)(C)C)C(=O)NC(CCCOC(C)=O)C(=O)NC(Cc1ccc([N+](=O)[O-])cc1)C(=O)NCC(=O)OCc1ccccc1` (stereo not given), the GI50 in assay [1] is 20.3 µM (inactive); in assay [2], 17.4 µM (inactive); in assay [3], 17.6 µM (inactive); in assay [4], 18.3 µM (inactive); in [5], 15.1 µM; in assay [6], 14 µM (inactive). Besides, the GI50 in [7] was 17.9 µM (inactive); in assay [8], 23.7 µM (inactive); in assay [9], 13.1 µM (inactive); in assay [10] it was 17.9 µM (inactive); in assay [11] it was 13 µM (inactive); in assay [12] it was 17.3 µM (inactive). Also, the GI50 in assay [13] is 16.1 µM (inactive); in assay [14], 12.3 µM (inactive); in [15], 11.9 µM (inactive); in [16] it was 15.3 µM (inactive); in [17], 17.9 µM (inactive); in assay [18], 15.4 µM (inactive). The GI50 in assay [19] is 16.4 µM (inactive); in assay [20] it was 15.3 µM (inactive).
Turning to `C=C(NC(=O)C(=C)NC(=O)c1csc(C2=NC3c4csc(n4)C4NC(=O)c5csc(n5)C(C(C)(O)C(C)O)NC(=O)C5CSC(=N5)/C(=C/C)NC(=O)C(C(C)O)NC(=O)c5csc(n5)C3(CC2)NC(=O)C(C)NC(=O)C(=C)NC(=O)C(=C)NC(=O)C(C(C)C)NC2C=Cc3c(C(C)O)cc(nc3C2O)C(=O)OC4C)n1)C(N)=O` (stereo not given), the GI50 in [1] is 5.42 µM (inactive); in assay [2] it was 2.59 µM (inactive); in assay [3] it was 0.468 µM (active); in assay [4], 3.92 µM (inactive); in [5], 9.25 µM; in assay [6], 12.3 µM (inactive). Further, the GI50 in [7] was 7.28 µM (inactive); in assay [8] it was 0.774 µM (active); in [9], 0.357 µM (active); in assay [10] it was 1.33 µM (inactive); in [11], 0.815 µM (active); in assay [12], 0.743 µM (active). Besides, the GI50 in assay [13] is 1.19 µM (inactive); in assay [14] it was > 52.4 µM (inactive); in [15] it was 26 µM (inactive); in [16] it was 0.34 µM (active); in [17] it was 1.38 µM (inactive); in assay [18], 2.22 µM (inactive). Besides, the results for the GI50 in assay [19] and in assay [20] were 1.29 µM (inactive) and 2.91 µM (inactive), respectively.
Regarding `CC1(C)CC(C2=NCCO2)CC(C)(C)N1`, the GI50 was > 100 µM (inactive) in [1]; > 100 µM (inactive) in [2]; > 100 µM (inactive) in assay [3]; > 100 µM (inactive) in assay [4]; greater than 100 µM in assay [5]; > 100 µM (inactive) in assay [6]. In addition, the GI50 is > 100 µM (inactive) in assay [7]; > 100 µM (inactive) in [8]; > 100 µM (inactive) in assay [9]; 27.7 µM (inactive) in [10]; > 100 µM (inactive) in [11]; > 100 µM (inactive) in assay [12]. Moreover, the GI50 in assay [13], in assay [14], in [15], in assay [16], in [17] and in assay [18] was > 100 µM (inactive) in each case. In addition, the GI50 in [19] and in assay [20] was > 100 µM (inactive) each time.
